Where two headings read alike, the source gives them in different places.
Experiments:
[1] = tested on: A549 cells; experiment: Cell anti-proliferation / toxicity assay (CCK-8), A549; format: cell-based; conditions: Homo sapiens, Table 6, 72 h, >100 = not reached at highest tested concentration (100 μM)
Experimental: (§1) Cell anti-proliferation assays were performed to determine the toxicity of these inhibitors. […] These compounds were further evaluated against the control cell line HEK293 to test their toxicity with a non-cancerous cell line.
(§2) And then the cells were exposed to the different inhibitors with various concentrations for 72 h. […] EC50s were calculated using GraphPad Prizm statistical package with sigmoidal variable slope dose response curve fit.

[2] = molecular target: T1, Mouse histone methyltransferase G9a (969-1263) (Mus musculus, UniProt Q9Z148); experiment: MALDI-TOF methylation study of G9a enzymatic activity (H3 peptide, SAM); format: biochemical; conditions: Supplementary Table 1; inhibitor 5 μM, 30 min; average of 3 values
T1 construct: The 6His-sumo mG9a (969-1263) protein was purified using the following procedure; 6His-sumo (N, cleaved yes); made in house; host or cells: Escherichia coli BL21 (DE3)
T1 sequence (Q9Z148 969-1263): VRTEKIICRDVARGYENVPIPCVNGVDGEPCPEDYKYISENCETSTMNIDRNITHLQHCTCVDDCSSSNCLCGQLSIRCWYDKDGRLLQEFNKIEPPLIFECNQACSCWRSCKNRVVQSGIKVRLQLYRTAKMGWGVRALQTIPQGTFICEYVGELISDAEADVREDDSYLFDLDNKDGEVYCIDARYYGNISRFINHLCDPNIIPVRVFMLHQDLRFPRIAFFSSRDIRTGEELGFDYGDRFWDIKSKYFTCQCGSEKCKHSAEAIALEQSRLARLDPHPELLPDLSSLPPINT
Experimental: Figure 3 compounds were synthesized from the commercially available starting material 1. An initial displacement reaction using a primary amine was used to introduce the C4 selective substitution, with the second displacement to introduce the linker at the C2 position following the microwave assisted reaction previously reported. Boc-protected ethylene diamine was treated with compound 2 at 160°C in a microwave for 10 min to yield product 3 with excellent yield. Afterward, the amine 3 was deprotected with TFA/DCM, and the free amine was treated with corresponding monomethyl esters (carbon chain 2-6) in the presence of coupling reagent EDCI and HOBt for about 8 hours to produce mono methyl ester substituted at the C2 position. The ester compounds further treated with hydroxylamine in water to get the corresponding hydroxamic acid derivatives, which were purified using reverse phase flash chromatography to obtain compounds 4-7 and 4a-7a in good yield. Synthesis of compounds in Figure 4 requires the C6 demethoxy core, and this was synthesized according to the reported procedure to yield 10 [45]. […] Compounds with the HDAC pharmacophore at the C4 position (Figure 2B) were synthesized from the starting material 1. […] A parallel synthesis and testing strategy were used in establishing the primary SAR, with the clear rationalization of the structure and activity at each stage we could reduce the synthetic targets. Initially, we evaluated the G9a potential after the introduction of HDAC pharmacophore. A biochemical assay using MALDI-TOF was used to visualize the effects of the synthesized compounds on G9a enzymatic activity, we carried out a biochemical reaction involving target enzyme G9a, methyl donor SAM and substrate H3 peptide at a concentration of 400 nM, 10 μM and 5 μM respectively.
Mouse histone methyltransferase G9a (969-1263) cDNA was amplified from the cDNA of BALB/c mouse thymus, and the fragment was sub-cloned into a vector with a 6His-sumo tag. The mouse G9a (mG9a) was expressed in Escherichia coli BL21 (DE3) by the addition of 1 mM isopropyl-1-thio-D-galactopyranoside (IPTG) and incubated overnight at 16°C.
The in vitro inhibition of G9a by the synthesized compounds were measured by MALDI-TOF mass spectrum (Bruker MALDI TOF/TOF Analyzer). 400 nM purified G9a, 5 μM synthesized histone H3 (1-21) and 10 μM non-radioactive S-adenosyl methionine (Sigma) were added in reaction buffer (50 mM HEPES pH 8.0, 5 μg/ml BSA and 0.1% β-Mercaptoethanol) with or without inhibitors (5 μM). The reaction was incubated at room temperature for 30 min, and stopped by TFA. 1 μl of the sample was mixed with CHCA matrix and m/z peaks were obtained at reflection positive mode. The results of mass spectrum were analyzed using the Bruker flex analysis software, a detailed description of data processing is provided as supplementary information (S3).
[…]
MALDI spectrums were collected using Bruker flex % conversion to product is also C, from this to get the control software and analyzed by flex analysis. After %maximal activity (%MA), C was compared to the % labelling each cluster peaks of H3K9Me0, H3K9Me1 conversion when no inhibitor was used (D). and H3K9Me2 for all of the tested concentrations, area Finally % inhibition was found by subtracting under the cluster (AUC) were extracted by using the same %MA from 100 […]
flex analysis software. % abundance of each peak was Example: % methylation levels and % inhibition calculated by following formula, when used 5 μM compound 14
A = % Abundance of (H3K9Me0) = area of A = 13.09
B = % Abundance of (H3K9Me1) = area of % conversion when no inhibitor was used D = 84.43 H3K9Me1/ (area of H3K9Me0+area of H3K9Me1 + area (average of six measurements) […]

[3] = tested on: MDA-MB-231 cells; experiment: Cell anti-proliferation / toxicity assay (CCK-8), MDA-MB-231; format: cell-based
Experimental: Initial tests designed around assessing whether a synergistic effect would be observed in real when a combination of G9a inhibitor and HDAC inhibitor used in conjunction.
as §1, with “inhibitors. Several cell lines (MDA-MB-231, MCF-7 and A549) were incubated and then treated with varying concentrations of the inhibitors for 72 h, respectively.” for “inhibitors.”
A549, MDA-MB-231, MCF-7 and HEK293 cells were seeded at 8000-10000 cells (100 μl) in white 96-well plates and pre-incubate the plate for 24 h under standard cell culture conditions, respectively. And then the cells were exposed to the different inhibitors with various concentrations for 72 h. Finally, 10 μl of CCK-8 kit solution was added to each well and incubated for 3-4 hours under standard cell culture conditions, and the 96 well plates were measured the absorbance at 450 nm using Perkin–Elmer Wallac Victor ^3V 1420 multi label plate reader (Perkin–Elmer, Wellesley, USA). EC50s were calculated using GraphPad Prizm statistical package with sigmoidal variable slope dose response curve fit.

[4] = tested on: MCF-7 cells; experiment: Cell anti-proliferation / toxicity assay (CCK-8), MCF-7; format: cell-based
Experimental: as §1, §2

[5] = tested on: HEK293 cells; experiment: Cell anti-proliferation / toxicity assay (CCK-8), HEK293 normal cell line; format: cell-based; conditions: Homo sapiens, Table 6, 72 h
Experimental: as §1, §2

[6] = tested on: HDAC; experiment: Homogeneous cellular histone deacetylase assay, Hela; format: cell-based, human; conditions: Supplementary Table 2; NA = not active up to highest concentration tested (100 μM); >100 = IC50 not reached at 100 μM; read-out: IC50-HDAC Hela
Experimental: (§3) The enzymatic activity of HDAC was measured in intact cells using the homogeneous cellular assay method. A cell-permeable peptide Boc-K(Ac)-AMC used as the HDAC substrate, after deacetylation it is cleaved by trypsin to release the fluorescent 7-amino-4-methylcoumarin (AMC) and further quantified.
(§4) The manual assay was developed by Thomas's group. […] After 24 h, 9 μl inhibitors with different concentration were added to the HeLa cells and incubation was continued for 3 h under cell culture conditions. After this treatment period, 10 μl of a 2 mM stock solution of the substrate Boc-K(Ac)-AMC was added into the 96 well plates with Hela cells and inhibitors. […] A549 and K562 cell lines used the same method, respectively. IC50s were calculated using GraphPad Prizm statistical package with sigmoidal variable slope dose response curve fit.

[7] = tested on: HDAC; experiment: Homogeneous cellular histone deacetylase assay, K562; format: cell-based, human; conditions: Supplementary Table 2; NA = not active up to highest concentration tested (100 μM); >100 = IC50 not reached at 100 μM; read-out: IC50-HDAC K562
Experimental: as §3, §4

[8] = tested on: HDAC; experiment: Homogeneous cellular histone deacetylase assay, A549; format: cell-based, human; conditions: Supplementary Table 2; NA = not active up to highest concentration tested (100 μM); >100 = IC50 not reached at 100 μM
Experimental: as §3, §4

[9] = Homo sapiens, MDA-MB-231, Table 6, 72 h, CCK-8, mean ± SD of triplicates, read-out: EC50 MDA-MB-231
[10] = Homo sapiens, MDA-MB-231, read-out: EC50, MDA-MB-231 (combination study)
[11] = Homo sapiens, MDA-MB-231, Supplementary Table 4, 72 h, CCK-8, >100 = not reached at 100 μM, read-out: EC50 MDA-MB-231
[12] = Homo sapiens, MCF7, Supplementary Table 4, 72 h, CCK-8, >100 = not reached at 100 μM, read-out: EC50 MCF-7

Structure (SMILES)	inhibition at 5 µM [2] [%]	EC50 [3, 11] [µM]	EC50 [4, 12] [µM]	also measured
O=C(CCCCCCC(=O)Nc1ccccc1)NO [SAHA, reference compound]	–	–	–	EC50 [3, 9]: 2.87 ± 0.84 µM; EC50 [3, 10]: 2.87 ± 0.84 µM
CN1CCCN(c2nc(NC3CCN(Cc4ccccc4)CC3)c3ccc(OCCCCCCCC(=O)NO)cc3n2)CC1 [Compound 30, 8-((4-((1-benzylpiperidin-4-yl)amino)-2-(4-methyl-1,4-diazepan-1-yl)quinazolin-7-yl)oxy)-N-hydroxyoctanamide]	–	–	–	EC50 ([3]; Supplementary Table 4, 72 h, CCK-8, >100 = not reached at 100 μM, read-out: EC50 MDA-MB-231): 24 ± 3.64 µM; EC50 ([4]; Supplementary Table 4, 72 h, CCK-8, >100 = not reached at 100 μM, read-out: EC50 MCF-7): > 100 µM
COc1cc2nc(NCCNC(=O)CCCCCC(=O)NO)nc(NC3CCN(C)CC3)c2cc1OC [Compound 5, N1-(2-((6,7-dimethoxy-4-((1-methylpiperidin-4-yl)amino)quinazolin-2-yl)amino)ethyl)-N7-hydroxyheptanediamide]	65 ± 1.95	> 100	> 100	–
COc1ccc2c(NCCNC(=O)CCCCCCC(=O)NO)nc(N3CCCN(C)CC3)nc2c1 [Compound 21, N1-hydroxy-N8-(2-((7-methoxy-2-(4-methyl-1,4-diazepan-1-yl)quinazolin-4 yl)amino)ethyl)octanediamide]	22.8 ± 26.7	> 100	> 100	IC50 [6]: > 100 µM; IC50 [7]: > 100 µM; IC50 [8]: > 100 µM
COc1cc2c(NC3CCN(C(C)C)CC3)nc(N3CCCN(C)CC3)nc2cc1OCCCCCCC(=O)NO [Compound 26, N-hydroxy-7-((4-((1-isopropylpiperidin-4-yl)amino)-6-methoxy-2-(4-methyl-1,4-diazepan-1-yl)quinazolin-7-yl)oxy)heptanamide]	–	31.3 ± 3.3	> 100	–
COc1cc2nc(NCCNC(=O)CCCCC(=O)NO)nc(NC3CCN(C)CC3)c2cc1OC [Compound 6, N1-(2-((6,7-dimethoxy-4-((1-methylpiperidin-4-yl)amino)quinazolin-2-yl)amino)ethyl)-N6-hydroxyadipamide]	26.6 ± 11.3	> 100	> 100	–

More lines, main results first:

inhibition at 5 µM [2] [%]	Structure (SMILES)	EC50 [3, 11] [µM]	EC50 [4, 12] [µM]	also measured
77.7 ± 5.73	COc1cc2nc(N3CCCN(C)CC3)nc(NC3CCN(Cc4ccccc4)CC3)c2cc1OC [BIX-01294, reference compound]	–	–	EC50 [1]: 21.7 ± 2.73 µM; EC50 [3, 9]: 2.16 ± 0.88 µM; EC50 [3, 10]: 2.16 ± 0.88 µM; EC50 ([4]; Homo sapiens, MCF7, Table 6, 72 h, CCK-8, mean ± SD of triplicates, read-out: EC50 MCF-7): 8.1 ± 1.99 µM; EC50 ([4]; Homo sapiens, MCF7, read-out: EC50, MCF-7 (combination study)): 8.1 ± 1.99 µM; EC50 [5]: 2.05 ± 0.98 µM
50.6 ± 16.5	COc1cc2nc(NCCNC(=O)CCCCC(=O)NO)nc(NC3CCN(C(C)C)CC3)c2cc1OC [Compound 6a, N1-hydroxy-N6-(2-((4-((1-isopropylpiperidin-4-yl)amino)-6,7-dimethoxyquinazolin-2-yl)amino)ethyl)adipamide]	> 100	> 100	–

Source: article PMC5609913, “Structure based design, synthesis and activity studies of small hybrid molecules as HDAC and G9a dual inhibitors” (Oncotarget, 2017)
